Patent US11040954B1, “CXCR3 receptor agonists” (RECEPTOS LLC, priority 2016, dated 2021)
Like-named read-outs stand apart in the source and are kept apart here.

Molecular target: T1, CXCR3 (Homo sapiens, UniProt P49682)
T1 construct: host or cells: CHO-K1 (cAMP Hunter CHOK1 CXCR3 Gi cell line)
T1 sequence (P49682 1-368): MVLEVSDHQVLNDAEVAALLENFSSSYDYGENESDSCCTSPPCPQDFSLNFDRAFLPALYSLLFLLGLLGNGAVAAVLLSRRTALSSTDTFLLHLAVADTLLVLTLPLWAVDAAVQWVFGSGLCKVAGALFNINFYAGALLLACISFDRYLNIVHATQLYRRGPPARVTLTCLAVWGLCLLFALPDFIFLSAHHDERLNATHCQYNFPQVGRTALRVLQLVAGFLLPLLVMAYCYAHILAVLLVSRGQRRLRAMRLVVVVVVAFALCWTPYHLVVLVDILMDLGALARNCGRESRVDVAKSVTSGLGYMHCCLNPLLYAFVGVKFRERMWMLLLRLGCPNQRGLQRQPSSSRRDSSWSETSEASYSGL
Assay: CXCR3 cAMP agonist assay (cAMP Hunter CHOK1 CXCR3 Gi cell line, forskolin-stimulated, HitHunter cAMP detection)
Assay type: cell-based
In short: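 CHOK1 cells expressing human CXCR3 with Gi coupling, 50,000/well in suspension in HBSS/10 mM HEPES/0.1% BSA pH 7.4, were co-treated with 20 μM forskolin and compound (12-point, 0-10 μM, 1% DMSO) for 30 min. cAMP was read by enzyme-complementation luminescence; CXCL11 dose response set maximum efficacy.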

[1] = cAMP Hunter CHOK1 CXCR3 Gi cells, 20 μM forskolin, 30 minutes, read-out: Activity (CXCR3 cAMP agonist assay compound EC50)

In the case of `Cc1cc(NC(=O)[C@](C)(CCCCN)NC(=O)[C@@H]2Cc3ccccc3CN2C(=O)CCC(=O)c2ccccc2)ccc1Cl` [Compound 4-10], the EC50 [1] is reported as 50 to 250 nM.

`Cc1cc(NC(=O)C(Cc2cccnc2)NC(=O)[C@@H]2Cc3ccccc3CN2C(=O)CCC(=O)c2ccccc2)ccc1Cl` (mixture of isomers) [Compound 3-3] showed an EC50 [1] of 250 to 500 nM.

Molecule `NCC[C@H](NC(=O)[C@@H]1Cc2ccccc2CN1C(=O)CCC(=O)c1ccccc1)C(=O)Nc1ccc(Cl)cc1Cl` [Compound 2-52] has an EC50 [1] of 50 to 250 nM.

In the case of `O=C(CCC(=O)N1Cc2ccccc2C[C@H]1C(=O)N[C@@H](CCN1CCCC(F)(F)C1)C(=O)Nc1ccc(Cl)c(Cl)c1F)c1ccccc1` [Compound 23-5], the EC50 [1] is reported as 250 to 500 nM.

`Cc1cc(NC(=O)[C@H](Cc2c[nH]cn2)NC(=O)[C@@H]2Cc3ccccc3CN2C(=O)CCC(=O)c2ccccc2)ccc1Cl` [Compound 4-8] was tested, and the EC50 [1] was less than 50 nM.

`NCC[C@H](NC(=O)[C@@H]1Cc2ccccc2CN1C(=O)CCC(=O)c1ccccc1)C(=O)Nc1ccc2c(c1)OCO2` [Compound 2-63] gave an EC50 [1] of 50 to 250 nM.

Molecule `COc1ccccc1NC(=O)[C@H](CCN)NC(=O)[C@@H]1Cc2ccccc2CN1C(=O)CCC(=O)c1ccccc1` [Compound 1-35] has an EC50 [1] of 250 to 500 nM.

In the case of `[N-]=[N+]=NCC[C@H](NC(=O)[C@@H]1Cc2ccccc2CN1C(=O)CCC(=O)c1ccccc1)C(=O)Nc1ccc(Cl)c(Cl)c1F` [Compound 14-22, (S)—N—((S)-4-azido-1-((3,4-dichloro-2-fluorophenyl)amino)-1-oxobutan-2-yl)-2-(4-oxo-4-phenylbutanoyl)-1,2,3,4-tetrahydroisoquinoline-3-carboxamide], the EC50 [1] is reported as 250 to 500 nM.

`NCCCC[C@H](NC(=O)[C@@H]1Cc2ccccc2CN1C(=O)CCC(=O)c1ccccc1)C(=O)Nc1cccc(Cl)c1` [Compound 1-9] showed an EC50 [1] of 50 to 250 nM.

Work on `NCC[C@H](NC(=O)[C@@H]1Cc2ccccc2CN1C(=O)CCC(=O)c1ccccc1)C(=O)Nc1ccc2c(c1Cl)CCC2` [Compound 2-77] yielded an EC50 [1] of 50 to 250 nM.

`Cc1ccc(NC(=O)[C@H](CCCCN)NC(=O)[C@@H]2Cc3ccccc3CN2C(=O)CCC(=O)c2ccccc2)cc1C` [Compound 1-29] gave an EC50 [1] of less than 50 nM.

Work on `Cc1cc(NC(=O)[C@@H](CC23CC(N)(C2)C3)NC(=O)[C@@H]2Cc3ccccc3CN2C(=O)CCC(=O)c2ccccc2)ccc1Cl` [Compound 22-2, (S)—N—((R)-3-(3-aminobicyclo[1.1.1]pentan-1-yl)-1-((4-chloro-3-methylphenyl)amino)-1-oxopropan-2-yl)-2-(4-oxo-4-phenylbutanoyl)-1,2,3,4-tetrahydroisoquinoline-3-carboxamide] yielded an EC50 [1] of 250 to 500 nM.

In the case of `NCC[C@H](NC(=O)[C@@H]1Cc2ccccc2CN1C(=O)CCC(=O)c1ccccc1)C(=O)Nc1ccc2c(c1)CCCC2` [Compound 2-46], the EC50 [1] is reported as less than 50 nM.

Work on `NCC[C@H](NC(=O)[C@@H]1Cc2ccccc2CN1C(=O)CCC(=O)c1ccccc1)C(=O)NC1CCc2ccccc2C1` (stereo partly drawn) [Compound 2-81] yielded an EC50 [1] of 50 to 250 nM.

In the case of `CC1(C)CCc2cc(NC(=O)[C@H](CCN)NC(=O)[C@@H]3Cc4ccccc4CN3C(=O)CCC(=O)c3ccccc3)ccc21` [Compound 2-72], the EC50 [1] is reported as less than 50 nM.

Work on `Cc1cc(NC(=O)[C@H](CCN)NC(=O)[C@@H]2Cc3ccccc3CN2C(=O)CCC(=O)N2CC3(CCCCC3)C2)ccc1Cl` [Compound 12-7] yielded an EC50 [1] of less than 50 nM.

Molecule `Cc1ccc(NC(=O)[C@H](CCCCN)NC(=O)[C@@H]2Cc3ccccc3CN2C(=O)CCC(=O)c2ccccc2)cc1` [Compound 1-3] has an EC50 [1] of 50 to 250 nM.

With `CC[C@H]1CCCCN1C(=O)CCC(=O)N1Cc2ccccc2C[C@H]1C(=O)N[C@@H](CCN)C(=O)Nc1ccc(Cl)c(C)c1` [Compound 12-97] the EC50 [1] was less than 50 nM.

Molecule `Cc1cc(NC(=O)[C@H](CCN)NC(=O)[C@@H]2Cc3ccccc3CN2C(=O)CCC(=O)N2CCC3(CCC3)C2)ccc1Cl` [Compound 12-94] has an EC50 [1] of less than 50 nM.

In the case of `Cc1cc(NC(=O)[C@H](CCN)NC(=O)[C@@H]2Cc3ccccc3CN2C(=O)CCC(=O)N2CCC(=O)CC2)ccc1Cl` [Compound 12-86], the EC50 is reported as 250 to 500 nM.

With `NCC[C@H](NC(=O)[C@@H]1Cc2ccccc2CN1C(=O)CCC(=O)c1ccccc1)C(=O)Nc1ccc2scnc2c1` [Compound 2-80] the EC50 [1] was 250 to 500 nM.
